Consider six compounds from patent US20230129095A1, “PEPTIDE INHIBITORS OF INTERLEUKIN-23 RECEPTOR AND THEIR USE TO TREAT INFLAMMATORY DISEASES” (Protagonist Therapeutics, Inc., priority 2020, published 2023).

Data set [1] in a line: Stability in simulated intestinal fluid (SIF). The data set is classed as in vitro ADME. The note with it: 37° C.; for SIF t1/2: 100 fold dilution of standard SIF concentration, 20 μM. The protocol: Studies were carried out in simulated intestinal fluid (SIF) and simulated gastric fluid (SGF) to evaluate gastric stability of the peptide inhibitors of the present invention. In addition, studies were carried out to assess redox stability of the peptide inhibitors of the present invention.
SIF was prepared by adding 6.8 g of monobasic potassium phosphate and 10.0 g of pancreatin to 1.0 L of water. After dissolution, the pH was adjusted to 6.8 using NaOH. DMSO stocks (2 mM) were first prepared for the test compounds. Aliquots of the DMSO solutions were dosed into 6 individual tubes, each containing 0.5 mL of SIF, which is pre-warmed to 37° C. The final test compound concentration was 20 μM. The vials were kept in a benchtop Thermomixer® for the duration of the experiment. At each timepoint (0, 5, 10, 20, 40, 60, or 360 minutes or 24 hours), 1.0 mL of acetonitrile containing 1% formic acid was added to one vial to terminate the reaction. Samples were stored at 4° C. until the end of the experiment. After the final timepoint is sampled, the tubes were mixed and then centrifuged at 3,000 rpm for 10 minutes. Aliquots of the supernatant were removed, diluted 1:1 into distilled water containing internal standard, and analyzed by LCMS/MS. Percent remaining at each timepoint was calculated based on the peak area response ratio of test to compound to internal standard. Time 0 was set to 100%, and all later timepoints were calculated relative to time 0. Half-lives were calculated by fitting to a first-order exponential decay equation using Graphpad.

Data set [2] is described as follows: Stability in rat plasma. The data set is classed as in vitro ADME. The note with it: both sexes, SD rat plasma, EDTA, 37° C., up to 24 hours, read-out: t1/2: Rat Plasma EDTA. The protocol:
Peptides of interest (20 μM) were incubated with pre-warmed rat plasma (SD rat, mixed gender pooled, EDTA, filtered through 0.22 μm, BioreclamationIVT) at 37° C. Aliquots were taken at various time points up to 24 hours (e.g. 0, 0.25, 1, 3, 6 and 24 hr), and immediately quenched with 4 volumes of organic solvent (acetonitrile/methanol (1:1) and 0.1% formic acid, containing 1 μM internal standard). Quenched samples were stored at 4° C. until the end of the experiment and centrifuged at 4,000 rpm for 10 minutes. The supernatant were diluted 1:1 with deionized water and analyzed using LC-MS. Percentage remaining at each time point was calculated based on the peak area ratio (analyte over internal standard) relative to the initial level at time zero. Half-lives were calculated by fitting to a first-order exponential decay equation using GraphPad.

For data set [3], the system named is Natural killer (NK) cells. The data set is classed as cell-based, human. The text has this: Where not shown, data was not yet determined.
The nature of data set [4]: Stability in human fecal homogenate (anaerobic). The data set is classed as in vitro ADME. The note with it: pH 6.8, 20% human fecal homogenate, 37° C., up to 24 hours, read-out: t1/2: Human Feces anaerobic. The protocol: (§1) Studies were carried out in human or cynomolgus monkey fecal homogenate to evaluate gastrointestinal stability of the peptide inhibitors of the present invention.
(§2) Fecal homogenate ([…]) was prepared by adding 4 mL of growth medium (1 liter contains 2 g peptone water powder, 2 g yeast extract, 0.1 g NaCl, 0.04 g KH2PO4, 0.01 g CaCl2.6H2O, 0.01 g MgSO4.7H2O, 2 mL Tween 80, 0.5 g bile salts, 0.5 g L-cysteine HCl, 2 g NaHCO3, and 10 μL Vitamin K, pH adjusted to 6.8, and sterilized by filtration through a 0.22 μm filter) to every gram of feces (pooled freshly collected human or cynomolgus monkey feces). The suspension was vortexed to break up large clumps, and homogenized using a bead mill homogenizer. Centrifuged the homogenate at 2800×g for 15 min. The supernatant is taken out and used for incubations. DMSO stocks (10 mM) were first prepared for the test compounds. Incubations were performed in an anaerobic chamber conditioned at 37° C. Aliquots of the DMSO solutions were dosed into 1.0 mL aliquots of 20% fecal homogenate, which are pre-warmed to 37° C. The final test compound concentration was 20 μM. At each timepoint (0, 20 min, 1, 3, 6, or 24 hours), 100 μL aliquot of each incubation mixture is taken out and added to separate tubes containing 300 μL of 50% acetonitrile/50% methanol and an internal standard to terminate the reaction. Samples were taken out of the anaerobic chamber and stored at 4° C. until the end of the experiment. After the final timepoint is sampled, the tubes were mixed and then centrifuged at 3,000 rpm for 10 minutes. Aliquots of the supernatant were removed, diluted 1:1 into distilled water containing 0.1% formic acid, and analyzed by LC/MS/MS. Percent remaining at each timepoint was calculated based on the peak area response ratio of test to compound to internal standard. Time 0 was set to 100%, and all later timepoints were calculated relative to time 0. Half-lives were calculated by fitting to a first-order exponential decay equation using Graphpad or Excel.

Data set [5] in a line: Stability in cynomolgus monkey fecal homogenate (anaerobic). The note with it: pH 6.8, 20% cynomolgus monkey fecal homogenate, 37° C., up to 24 hours, read-out: t1/2: Monkey Feces anaerobic (converted). The data set is classed as in vitro ADME. The protocol:
as §1, §2

Setting [6] is: 20% fecal homogenate (supernatant).

The structures appear in SMILES notation. *1 amine or outer side, *2 acyl side, *3 side chain or, on linkers, in order; H or OH if unused. Where a SMILES comes first, the peptide text is derived from it. Bridges are numbered along the chain shown (N, C = ends). [ ]: non-standard residue; d: D form. X1 = O=C([C@H](Cc1c[nH]c2c(-c3cccc(C(F)(F)F)c3)cccc12)N[*:1])[*:2]; X2 = O=C([C@H](Cc1c[nH]c2c(-c3ccc(F)cc3)cccc12)N[*:1])[*:2]; Trp(7-Ph) = N[C@@H](Cc1c[nH]c2c(-c3ccccc3)cccc12)C(=O)O; Ala(quinolin-3-yl) = N[C@@H](Cc1cnc2ccccc2c1)C(=O)O; Abu(4-yl) = O=C([C@H](CC[*:3])N[*:1])[*:2]; 2Nal = N[C@@H](Cc1ccc2ccccc2c1)C(=O)O; AEF = NCCOc1ccc(C[C@H](N)C(=O)O)cc1; Pen = CC(C)(S)[C@H](N)C(=O)O; αMeK = C[C@](N)(CCCCN)C(=O)O; Thp = NC1(C(=O)O)CCOCC1

In the case of `CC(=O)NCCCC[C@@H]1NC(=O)[C@H](Cc2c[nH]c3c(-c4ccc(F)cc4)cccc23)NC(=O)[C@H]([C@@H](C)O)NC(=O)[C@H](CC(N)=O)NC(=O)[C@@H](NC(C)=O)C(C)(C)SSC(C)(C)[C@@H](C(=O)N[C@@H](Cc2ccc(OCCN)cc2)C(=O)N[C@@H](Cc2ccc3ccccc3c2)C(=O)N[C@@](C)(CCCCN)C(=O)N[C@@H](CCCCNC(C)=O)C(=O)N[C@@H](CC(N)=O)C(=O)N[C@H](CCCCN)C(N)=O)NC1=O` [Peptide 10, Ac-[Pen]-N-T-[W(7-(4-FPh))]-[Lys(Ac)]-[Pen]-Phe[4-(2-aminoethoxy)]-[2-Nal]-[a-MeLys]-[Lys(Ac)]-N-[(D)Lys)]-NH2] (Ac-[Pen]NT[X2]K(Ac)[Pen][AEF][2Nal][αMeK]K(Ac)N[dK]-NH2; disulfide 1-6), the “SIF t1/2” value in data set [1] is 24 h. Further, the half-life at 20 μM in data set [2] (pooled), in data set [4] and in data set [5] was more than 24 h each time. Moreover, in data set [3], half-maximal inhibition (IC50) was put at 3.32 nM.
Take `CC(=O)NCCCC[C@@H]1NC(=O)[C@H](Cc2c[nH]c3c(-c4cccc(C(F)(F)F)c4)cccc23)NC(=O)[C@H]([C@@H](C)O)NC(=O)[C@H](CC(N)=O)NC(=O)[C@@H](NC(C)=O)C(C)(C)SSC(C)(C)[C@@H](C(=O)N[C@@H](Cc2ccc(OCCN)cc2)C(=O)N[C@@H](Cc2ccc3ccccc3c2)C(=O)N[C@@](C)(CCCCN)C(=O)N[C@@H](CCCCNC(C)=O)C(=O)N[C@@H](CC(N)=O)C(=O)N[C@H](CCCCN)C(N)=O)NC1=O` [Peptide 9, Ac-[Pen]-N-T-[W(7-(3-CF3Ph))]-[Lys(Ac)]-[Pen]-Phe[4-(2-aminoethoxy)]-[2-Nal]-[a-MeLys]-[Lys(Ac)]-N-[(D)Lys)]-NH2] (Ac-[Pen]NT[X1]K(Ac)[Pen][AEF][2Nal][αMeK]K(Ac)N[dK]-NH2; disulfide 1-6): the “SIF t1/2” value in data set [1] was 24 h. Further, the half-life at 20 μM in data set [2] (pooled), in data set [4] and in data set [5] was more than 24 h in each case. Further, in data set [3], it took 9.3 nM to reach half-maximal inhibition (IC50).
On to `CC(=O)NCCCC[C@@H]1NC(=O)[C@H](Cc2c[nH]c3c(-c4ccccc4)cccc23)NC(=O)[C@H]([C@@H](C)O)NC(=O)[C@H](CC(N)=O)NC(=O)[C@@H](NC(C)=O)C(C)(C)SSC(C)(C)[C@@H](C(=O)N[C@@H](Cc2ccc(OCCN)cc2)C(=O)N[C@@H](Cc2cnc3ccccc3c2)C(=O)N[C@@](C)(CCCCN)C(=O)N[C@@H](CCCCNC(C)=O)C(=O)N[C@@H](CC(N)=O)C(=O)N[C@H](CCCCN)C(N)=O)NC1=O` [Peptide 14, Ac-[Pen]-N-T-[W(7-Ph)]-[Lys(Ac)]-[Pen]-Phe[4-(2-aminoethoxy)]-[3Quin]-[a-MeLys]-[Lys(Ac)]-N-[(D)Lys]-NH2] (Ac-[Pen]NT[Trp(7-Ph)]K(Ac)[Pen][AEF][Ala(quinolin-3-yl)][αMeK]K(Ac)N[dK]-NH2; disulfide 1-6), for which, in data set [1], the “SIF t1/2” value was 24 h. The half-life at 20 μM in data set [2], in data set [4] (setting [6]) and in data set [5] (setting [6]) was more than 24 h in each case. In addition, in data set [3], the IC50 is 2.41 nM.
Consider `CC(=O)NCCCC[C@@H]1NC(=O)[C@H](Cc2c[nH]c3c(-c4ccccc4)cccc23)NC(=O)[C@H]([C@@H](C)O)NC(=O)[C@H](CC(N)=O)NC(=O)[C@@H](NC(C)=O)C(C)(C)SSC(C)(C)[C@@H](C(=O)N[C@@H](Cc2ccc(OCCN)cc2)C(=O)N[C@@H](Cc2cnc3ccccc3c2)C(=O)N[C@@](C)(CCCCN)C(=O)N[C@@H](CCCCNC(C)=O)C(=O)N[C@@H](CC(N)=O)C(=O)N[C@H](CC(C)C)C(N)=O)NC1=O` [Peptide 16, Ac-[Pen]-N-T-[W(7-Ph)]-[Lys(Ac)]-[Pen]-Phe[4-(2-aminoethoxy)]-[3Quin]-[a-MeLys]-[Lys(Ac)]-N-[(D)Leu]-NH2] (Ac-[Pen]NT[Trp(7-Ph)]K(Ac)[Pen][AEF][Ala(quinolin-3-yl)][αMeK]K(Ac)N[dL]-NH2; disulfide 1-6), for which the “SIF t1/2” value in data set [1] is 24 h. In addition, the half-life at 20 μM in data set [2], in data set [4] (setting [6]) and in data set [5] (setting [6]) was more than 24 h throughout. In data set [3], this compound displayed an IC50 of 2.9 nM.
Regarding `CC(=O)NCCCC[C@@H]1NC(=O)[C@H](Cc2c[nH]c3c(-c4ccccc4)cccc23)NC(=O)[C@H]([C@@H](C)O)NC(=O)[C@H](CCC(N)=O)NC(=O)[C@@H](NC(C)=O)CCSC[C@@H](C(=O)N[C@@H](Cc2ccc(OCCN)cc2)C(=O)N[C@@H](Cc2ccc3ccccc3c2)C(=O)N[C@@](C)(CCCCN)C(=O)N[C@@H](CCCCNC(C)=O)C(=O)N[C@@H](CC(N)=O)C(=O)N[C@H](CC(C)C)C(N)=O)NC1=O` [Peptide 18, Ac-[Abu]-Q-T-[W(7-Ph)]-[Lys(Ac)]-[Cys]-Phe[4-(2-aminoethoxy)]-[2-Nal]-[a-MeLys]-[Lys(Ac)]-N-[(D)Leu]-NH2] (Ac-[Abu(4-yl)]QT[Trp(7-Ph)]K(Ac)C[AEF][2Nal][αMeK]K(Ac)N[dL]-NH2; thioether 1-6), the half-life at 20 μM in data set [1] (pH 6.8, 100 fold dilution of standard SIF concentration, read-out: SIF t1/2 (converted)) is 19.8 h; in data set [2] (pooled) it was more than 24 h; in data set [4] it was more than 24 h; in data set [5], more than 24 h. For the same compound, in data set [3], the IC50 amounted to 6.28 nM.
For the compound `CC(=O)NCCCC[C@@H]1NC(=O)[C@H](Cc2c[nH]c3c(-c4ccccc4)cccc23)NC(=O)[C@H]([C@@H](C)O)NC(=O)[C@H](CC(N)=O)NC(=O)[C@@H](NC(C)=O)C(C)(C)SSC(C)(C)[C@@H](C(=O)N[C@@H](Cc2ccc(OCCN)cc2)C(=O)N[C@@H](Cc2cnc3ccccc3c2)C(=O)NC2(C(=O)N[C@@H](CCC(=O)O)C(=O)N[C@@H](CC(N)=O)C(=O)N[C@H](CC(C)C)C(N)=O)CCOCC2)NC1=O` [Peptide 15, Ac-[Pen]-N-T-[W(7-Ph)]-[Lys(Ac)]-[Pen]-Phe[4-(2-aminoethoxy)]-[3Quin]-[THP]-E-N-[(D)Leu]-NH2] (Ac-[Pen]NT[Trp(7-Ph)]K(Ac)[Pen][AEF][Ala(quinolin-3-yl)][Thp]EN[dL]-NH2; disulfide 1-6), the “SIF t1/2” value in data set [1] was 24 h. The half-life at 20 μM in data set [2], in data set [4] (setting [6]) and in data set [5] (setting [6]) was more than 24 h in each case. Besides, in data set [3], the IC50 turned out to be 2.44 nM.
